Assay [1] concerns ApoE deficient mice. As to the kind of experiment: Improvement of coronary function in diseased ApoE deficient mice (isolated working heart). It counts as in vivo. The protocol:
Old Male wild-type C57BL/6J mice (Charles River Wiga GmbH, Sulzfeld), and apolE deficient mice (C57BL/6J background, Jackson Laboratory, Bar Harbor, Me.) 6 month of age and weighing 28 to 36 g were used in the experiments. Mice were divided into 3 groups (C57BL/6, n=8; apoE control, n=8; apoE with compound (I), n=8) and received for 8 weeks either a standard rodent chow (containing 4% fat and 0.001% cholesterol) or a standard rodent chow+compound (I) (30 mg/kg/d p.o.).
Mice were anesthetized with sodium pentobarbitone (100 mg/kg i.p.), and the hearts were rapidly excised and placed into ice-cold perfusion buffer. The aorta was cannulated and connected to a perfusion apparatus (HUGO SACHS ELECTRONICS, Freiburg, Germany) which was started immediately at a constant perfusion pressure of 60 mm Hg. Hearts were perfused in a retrograde fashion with modified Krebs bicarbonate buffer, equilibrated with 95% O2 and 5% CO2 and maintained at 37.5° C.
A beveled small tube (PE 50) was passed through a pulmonary vein into the left ventricle and pulled through the ventricular wall, anchored in the apex by a fluted end, and connected to a tip-micromanometer (Millar 1.4 French). The left atrium was cannulated through the same pulmonary vein and the heart switched to the working mode with a constant preload pressure of 10 mm Hg and an afterload pressure of 60 mm Hg. Aortic outflow and atrial inflow were continuously measured using ultrasonic flow probes (HSE/Transonic Systems Inc.). Coronary flow was calculated as the difference between atrial flow and aortic flow. All hemodynamic data were digitized at a sampling rate of 1000·Hz and recorded with a PC using specialized software (HEM, Notocord).
Hearts were allowed to stabilize for 30 min. All functional hemodynamic data were measured during steady state, and during volume- and pressure loading.
Left ventricular function curves were constructed by varying pre-load pressure. For acquisition of preload curves, afterload was set at 60 mm Hg and preload was adjusted in 5 mm Hg steps over a range of 5 to 25 mm Hg. […]

In assay [2] the test system is ApoE deficient mice. In words: Prevention of atherosclerotic plaque formation in chronic treatment. Type of assay: in vivo. An excerpt: (§1) ApoE and eNOS deficient mice (C57BL/6J background, Jackson Laboratory, Bar Harbor, Me.) were used. All animals were 10–12 weeks of age and weighed 22 to 28 g. Three days before surgery, mice were divided into 4 groups (apoE control, n=10–12; apoE with compound (I), n=10–12; eNOS control, n=10–12; eNOS with compound (I), n=10–12) and received either a standard rodent chow (containing 4% fat and 0.001% cholesterol; in the following designated as placebo group) or a standard rodent chow+compound (I) (10 or 30 mg/kg/d p.o.).
ApoE deficient mice were treated for 16 weeks with compound (I) pressed in chow and finally sacrificed. Aortas were removed from each mouse, fixed in formalin and embedded in paraffin. Plaque formation was measured via lipid lesions formation in the aortas (from aortic arch to diaphragm) and was analyzed by oil red O staining. For quantifying the effect of the respective compound on vascular eNOS expression the […] were used in this experiment.

In assay [3] the test system is ApoE deficient mice. As to the kind of experiment: Inhibition of neointima formation and atherogenesis (femoral artery cuff), ApoE deficient mice. It counts as in vivo.
Source text: as §1
After 3 days treatment of ApoE deficient mice with compound (I), (10 mg/kg/d pressed in chow), animals were anesthetized with an intraperitoneal injection of pentobarbital (60 mg/kg) followed by an intramuscular injection of xylazin (2 mg/kg) and a cuff was placed around the femoral artery as described in Moroi et at. (J Clin Invest. 101:1225–32, 1998). Briefly, the left femoral artery was dissected. A non-occlusive 2.0 mm polyethylene cuff made of PE-50 tubing (inner diameter 0.56 mm, outer diameter 0.965 mm, Becton Dickinson, Mountain View, Calif.) was placed around the artery and tied in place with two 7–0 sutures. The right femoral artery was isolated from the surrounding tissues but a cuff was not placed. Treatment with compound (I) was continued for 14 days after surgery. Then the animals were sacrificed. The aortas were taken for determination of vascular eNOS expressions by quantitative western blotting. Both femoral arteries were harvested, fixed in formalin and embedded in paraffin. 20 cross sections (10 μm) were cut from the cuffed portion of the left femoral artery and from the corresponding segment of the right artery. Sections were subjected to standard hematoxylin and eosin staining. Morphometric analyses were performed using an image analysis computer program (LeicaQWin, Leica Imaging Systems, Cambridge, GB). For each cross section the area of the lumen, the neointima and the media were determined. […] The ratio between the area of the neointima and the area of the media was expressed as the neointima/media ratio.

Assay [4] relates to eNOS deficient mice. In words: Femoral artery cuff model in eNOS deficient mice. Type of assay: in vivo. The conditions noted are these: similar setup.
Source text: as §1
After 3 days treatment of ApoE deficient mice with compound (I), (10 mg/kg/d pressed in chow), animals were anesthetized with an intraperitoneal injection of pentobarbital (60 mg/kg) followed by an intramuscular injection of xylazin (2 mg/kg) and a cuff was placed around the femoral artery as described in Moroi et at. (J Clin Invest. 101:1225–32, 1998). Briefly, the left femoral artery was dissected. […] The aortas were taken for determination of vascular eNOS expressions by quantitative western blotting. […] For each cross section the area of the lumen, the neointima and the media were determined. […] The ratio between the area of the neointima and the area of the media was expressed as the neointima/media ratio.

Assay [5] has as its system ApoE deficient mice. As to the kind of experiment: Anti-hypertensive effect in ApoE knockout mice (tail-cuff). To be noted: 30 mg/kg/d p.o. in chow, after 4 months treatment, placebo 115±2 mmHg, p<0.05. Type of assay: in vivo.
Source text: as §1
(§2) Blood-pressure was determined in conscious mice using a computerized tail-cuff system.

The test system of the next assay is eNOS promoter. As to the kind of experiment: Activation of eNOS transcription (eNOS promoter-luciferase reporter). It counts as cell-based, human. To be noted: 18 h incubation. The protocol:
Activation of eNOS transcription was measured as described in detail in Li et al. “Activation of protein kinase C alpha and/or epsilon enhances transcription of the human endothelial nitric oxide synthase gene”, Mol. Pharmacol. 1998, 53: 630–637.
Briefly, a 3.5 kB long fragment 5′ of the starting codon of the eNOS gene was cloned, sequenced and cloned in firefly luciferase expression plasmids to monitor activation of the eNOS promoter by reporter gene activity. A human endothelial cell line stable transfected and expressing this promoter-reporter construct was used for compound testing. Cells were incubated for 18 h with the compound (I).
Prior to incubation of the cells, the compound (I) was dissolved in sterile DMSO. A final concentration of 0.5% DMSO in complete medium was obtained. Induction of reporter gene expression in these cells was measured using a standard luciferase assay system (Promega, Cat. No E150) according to the manufacturer's instructions. Luciferase induction in cells incubated with compound (I) were compared to those incubated with solvent alone. The ratio of both activities (transcription induction ratio, TIR) was plotted as a function of compound concentration. […] EC50 values of transcription induction ratios as a function of compound concentration were determined graphically.
For orientation: A reporter such as luciferase makes a cellular process visible.

Another assay concerns eNOS protein expression. In words: eNOS protein detection in HUVEC by quantitative Western blotting. It counts as cell-based, human. To be noted: 18 h incubation. The protocol: The effect of the compound (I) on eNOS-transcription was confirmed in a second assay based on eNOS protein detection. Primary human umbilical vein cord endothelial cells (HUVEC) were isolated and cultivated according to standard procedures. Confluent cells were incubated with compound (I) for 18 h and the effect on eNOS protein expression determined by a quantitative Western blotting procedure. After incubation of compound (I), HUVEC were lysed in ice-cold lysis buffer containing 10 mM Tris-HCl, pH 8.0, 1% SDS and protease inhibitors. The lysate was subjected to a standard denaturating polyacrylamid gel electropheresis and blotted to nitrocellulose membranes. Using a specific primary monoclonal antibody (Transduction Laboratories, UK) and alkaline phosphatase labelled secondary antibody (Jackson Labs), a specific eNOS protein band was visualized and quantified based on a chemifluorescence detection method.
In general terms: Immunoblotting shows a protein as a band on a membrane.

Assay [6] concerns eNOS deficient mice. As to the kind of experiment: Blood pressure in eNOS deficient mice (tail-cuff). It counts as in vivo. To be noted: similar dosing, after 4 weeks treatment.
Source text: as §1, §2

The mark [7] stands for this setting: isolated hearts of ApoE deficient mice, 30 mg/kg/d p.o., 8 weeks.

For `O=C(NC1Cc2ccccc2C1)c1ccc(F)cc1` [compound (I), 4-fluoro-N-indan-2-yl benzamide], the coronary flow in the assay with ApoE deficient mice [1] (isolated hearts of ApoE deficient mice treated 8 weeks with 30 mg/kg/d p.o., wildtype 4.95 ml/min) turned out to be 5 mL/min. Also, in the assay with ApoE deficient mice [1] (setting [7]), the “incidence of ventricular arrhythmias” value was “reduced” and the “pre-load dependent coronary flow” value is given as “improved”. For the same compound, in the assay with ApoE deficient mice [2] (16 weeks treatment in chow, aortas, oil red O staining, placebo 13.3±2.6), the “overall plaque size in % of total surface” value is recorded as 5.2±1%. In the assay with ApoE deficient mice [2] (16 weeks treatment, femoral arteries), the “vascular eNOS expression up-regulation” value turned out to be 1.75 fold. Moreover, the “reduction of neo-intima formation (factor)” value in the assay on ApoE deficient mice [3] (10 mg/kg/d in chow, 3 days before to 14 days after cuff surgery) is on record as 2. Moreover, the “neointima to media ratio” value in the assay with ApoE deficient mice [3] (10 mg/kg/d in chow, cuffed femoral artery, placebo 0.39±0.07) came out at 0.170±0.04. In addition, the “vascular eNOS expression enhanced by a factor” value in the assay with ApoE deficient mice [3] (10 mg/kg/d, aortas, quantitative western blotting) was 2.1. Also, in the assay with eNOS deficient mice [4], the “effect on neointima formation / eNOS expression” value is reported as “No effect”. The blood pressure in the assay with ApoE deficient mice [5] turned out to be 92±5 mmHg. In addition, in the assay with eNOS promoter (human endothelial cell line stably transfected with eNOS promoter-luciferase construct, read-out: EC50 of transcription induction ratio), the EC50 was 800 nM. Besides, the “TIR(max) (maximum transcription induction ratio)” value in the assay with eNOS promoter (human endothelial cell line, ratio versus solvent alone) came to 4.10. For the same compound, the “effect on eNOS protein expression” value with eNOS protein expression is “confirmed”. The blood pressure reduction result in the assay with eNOS deficient mice [6] is “No blood pressure reduction could be observed”.

For the origin of these results see patent publication US7202278B2, “4-fluoro-N-indan-2-yl benzamide and its use as a pharmaceutical” (Sanofi-Aventis Deutschland GmbH, priority 2001, dated 2007).
